# Experimental data taken from patent US11021481B2, “Substituted isoindolin-1-ones and 2,3-dihydro-1h-pyrrolo[3,4-c]pyridin-1-ones as HPK1 antagonists” (Nimbus Saturn, Inc., priority 2019, dated 2021).
# Where a name gives a salt, the structure may show the parent alone.
# Target: HPK1 (Homo sapiens (Human), UniProt Q92918)
# Assay: HPK1 biochemical enzyme assay (microfluidic mobility shift assay)
# Conditions: 1.5 nM HPK1, ATP 1 mM final, 30 min preincubation, 60 min at RT, Caliper EZ Reader; read-out: HPK1 1000UMATP caliper IC50
# Outline: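 Mobility shift readout of HPK1 activity after a 60 min RT reaction with 1 mM ATP, 1 μM substrate and 5 mM MgCl2. Enzyme/substrate mix was first exposed to compounds for 30 min, using ten-point curves topping at 3 μM final.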
# Sequence of HPK1 (Q92918 whole entry): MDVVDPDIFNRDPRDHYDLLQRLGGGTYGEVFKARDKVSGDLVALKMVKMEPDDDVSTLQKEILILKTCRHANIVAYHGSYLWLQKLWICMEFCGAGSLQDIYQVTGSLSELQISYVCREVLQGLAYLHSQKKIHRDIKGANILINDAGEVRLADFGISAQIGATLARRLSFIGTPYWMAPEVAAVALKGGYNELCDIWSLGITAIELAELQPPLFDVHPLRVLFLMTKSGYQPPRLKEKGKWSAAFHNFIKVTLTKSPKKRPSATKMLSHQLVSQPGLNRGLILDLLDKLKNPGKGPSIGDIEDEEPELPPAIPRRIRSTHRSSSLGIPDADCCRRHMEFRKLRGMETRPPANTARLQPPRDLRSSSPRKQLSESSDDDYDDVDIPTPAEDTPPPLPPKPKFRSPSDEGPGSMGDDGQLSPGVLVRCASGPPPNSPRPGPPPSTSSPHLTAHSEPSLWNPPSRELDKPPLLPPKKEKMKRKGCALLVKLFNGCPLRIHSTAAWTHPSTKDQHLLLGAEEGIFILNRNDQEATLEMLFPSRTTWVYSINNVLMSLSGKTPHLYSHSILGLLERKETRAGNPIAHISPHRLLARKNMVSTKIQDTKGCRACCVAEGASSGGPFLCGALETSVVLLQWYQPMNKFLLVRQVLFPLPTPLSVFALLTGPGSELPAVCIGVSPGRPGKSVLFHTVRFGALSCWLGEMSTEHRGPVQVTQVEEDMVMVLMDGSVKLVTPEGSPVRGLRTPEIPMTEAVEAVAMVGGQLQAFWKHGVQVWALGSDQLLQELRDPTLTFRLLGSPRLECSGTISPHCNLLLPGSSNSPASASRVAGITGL
row,Compound,IC50 [nM]
1,"CN1CCN(c2ccc(Nc3ccc(-c4ncnc5c4ccn5C)c4c3C(=O)NC4)nc2)CC1 [I-83, 7-[[5-(4-methylpiperazin-1-yl)-2-pyridyl]amino]-4-(7-methylpyrrolo [2,3-d]pyrimidin-4-yl)isoindolin-1-one]",< 100
2,"Cc1ccc2ncc(-c3ccc(Nc4ccc(N5CCN(C)CC5)cn4)c4c3CNC4=O)n2c1 [I-51, 4-(6-methylimidazo [1,2-a]pyridin-3-yl-)-7-[[5-(4-methylpiperazin-1-yl)-2-pyridyl]amino] isoindolin-1-1-one]",< 100
3,"O=C1NCc2c(-c3cnc4cnccn34)ncc(Nc3ccc(N4CCC(O)CC4)cn3)c21 [I-208, 7-[[5-(4-hydroxy-1-piperidyl)-2-pyridyl]-amino]-4-imidazo[1,2-a]pyrazin-3-yl-2,3-dihydropyrrolo [3,4-c]pyridin-1-one]",100 to 1000
4,"CN(C)C(C)(C)[C@H]1CN(c2ccc(Nc3ccc(-c4cnc5cnccn45)c4c3C(=O)NC4)nc2)CCO1 [I-618, (R)-7-((5-(2-(2-(dimethylami-no)propan-2-yl)morpho-lino)pyridin-2-yl)amino)-4-(imidazo[1,2-a]pyrazin-3-yl)isoindolin-1-one]",< 100
5,"Cc1cc2c(-c3ccc(Nc4ccc(N5CCN(C)CC5)cn4)c4c3CNC4=O)ccnc2[nH]1 [I-38, 7-[[5-(4-methylpiperazin-1-yl)-2-pyridyl]amino]-4-(2-methyl-1H-pyrrolo[2,3-b]pyridin-4-yl)isoindolin-1-one]",< 100
6,Cn1ccc2c(-c3ccc(Nc4ccc(N5CCNCC5)cn4)c4c3CNC4=O)ccnc21 [I-43],< 100
7,"CO[C@H]1CC[C@H](CO)N(c2ccc(Nc3ccc(-c4cnn5c4CCCC5)c4c3C(=O)NC4)nc2)C1 [I-571, 7-((5-((2R,5S)-2-(hydroxymeth-yl)-5-methoxy-piperidin-1-yl)pyridin-2-yl)amino)-4-(4,5,6,7-tetrahydropyra-zolo[1,5-a]pyridin-3-yl)isoindolin-1-one]",< 100
8,"Cn1ccc2c(-c3ccc(Nc4ccc(N5CCC[C@H](O)C5)cn4)c4c3CNC4=O)ccnc21 [I-116, 7-[[5-[(3S)-3-hydroxy-1-piperidyl]-2-pyridyl]amino]-4-(1-methylpyrrolo [2,3-b]pyridin-4-yl)isoindolin-1-one]",< 100
9,CN1CCN(c2ccc(Nc3cnc(-c4c[nH]c5cc(O)ccc45)c4c3C(=O)NC4)nc2)CC1 [I-250],100 to 1000
10,"CNC1CCN(c2ccc(Nc3ccc(-c4cnc5ccccn45)c4c3C(=O)NC4)nc2)CC1 [I-58, 4-imidazo[1,2-a]pyridin-3-yl-7-[[5-[4-(methylamino)-1-piperidyl]-2-pyridyl]amino] isoindolin-1-one]",< 100
11,"CN[C@@H]1CCCN(c2ccc(Nc3ccc(-c4ccnc5c4ccn5C)c4c3C(=O)NC4)nc2)C1 [I-100, 7-[[5-[(3R)-3-(methviamino)-1-piperidyl]-2-pyridyl]amino]-4-(1-methylpyrrolo [2,3-b]pyridin-4-yl)isoindolin-1-one]",< 100
12,"O=C1NCc2c(-c3c[nH]c4ccccc34)ncc(Nc3ccc(N4CCOCC4)cn3)c21 [I-3, 4-(1H-indo1-3-yl)-7-[(5-morpholino-2-pyridyl)amino]-2,3-dihydropyrrolo [3,4-c] pyridin-1-one]",100 to 1000
13,"(S)-7-((6- ((dimethylamino)- methyl)-5- (tetrahydrofuran- 3-yl)pyridin- 2-yl)amino)-4- (8-methylimidazo [1,2-a]pyridin- 3-yl)isoindolin- 1-one [I-695]",< 100
14,"7-[[6- [(dimethylamino)- methyl]-5- tetrahydrofuran- 3-yl-2- pyridyl]amino]- 4-(7- methylimidazo [1,2-a]pyrimidin-3- yl)isoindolin- 1-one [I-846]",< 100
15,"Cn1ccc2c(-c3ncc(Nc4cccc(N5CC[C@@H](N6CCCC6)C5)n4)c4c3CNC4=O)ccnc21 [I-431, (R)-7-((6-([1,3-bipyrrolidin]-1-yl)pyridin-2-yl)amino)-1-(1-methyl-1H-pyrrolo[2,3-b]pyridin-4-yl)-2,3-dihydro-1H-pyrrolo[3,4-c]pyridin-1-one]",< 100
16,"Cn1cnc2nccc(-c3ccc(Nc4ccc(N5CCNCC5)cn4)c4c3CNC4=O)c21 [I-114, 4-(1-methylimidazo [4,5-b]pyridin-7-yl)-7-[(5-piperazin-1-yl-2-pyridyl)amino] isoindolin-1-one]",> 1000
17,"Cn1nc(Nc2ccc(-c3ccnc4c3ccn4C)c3c2C(=O)NC3)cc1C1CCOCC1 [I-129, 4-(1-methylpyrrolo [2,3-b]pyridin-4-yl)-7-[(1-methyl-5-tetrahydropy-ran-4-yl-pyrazol-3-yl)amino]isoin-dolin-1-one]",< 100
18,"Cn1ccc2c(-c3ccc(Nc4ccc(N5CCC(O)CC5)cn4)c4c3C(C)(C)NC4=O)ccnc21 [I-282, 7-((5-(4-hydroxypiper-idin-1-yl)pyridin-2-yl)amino)-3.3-dimethyl-4-(1-methyl-1H-pyrrolo[2,3-b]pyridin-4-yl)isoindolin-1-one]",> 1000

# Results, then the compound that gave them:
row,IC50 [nM],Compound
1,< 100,"COC1(c2ccc(Nc3ccc(-c4cnc5cc(F)ccn45)c4c3C(=O)NC4)nc2CN(C)C)CC1 [I-823, 7-((6-((dimethylamino)methyl)-5-(1-methoxycyclopropyl)pyridin-2-yl)amino)-4-(7-fluoroimidazo[1,2-a]pyridin-3-yl)isoindolin-1-one]"
2,< 100,"O=C1NCc2c(-c3cnc4cc(F)ccn34)ccc(Nc3ccc(N4CCOC[C@H](O)C4)cn3)c21 [I-338, (R)-4-(7-fluoroimidazo [1,2-a]pyridin-3-yl)-7-((5-(6-hydroxy-1,4-oxazepan-4-yl)pyridin-2-yl)amino)isoin-dolin-1-one]"
3,< 100,"NCc1nc(Nc2ccc(-c3cnc4cc(F)ccn34)c3c2C(=O)NC3)ccc1[C@@H]1CCOC1 [I-702, (S)-7-((6-(aminomethyl)-5-(tetrahydrofuran-3-yl)pyridin-2-yl)amino)-4-(7-fluoroimidazo [1,2-a]pyridin-3-yl)isoindolin-1-one]"
4,< 100,"CN1CCO[C@@]2(CCCN(c3ccc(Nc4ccc(-c5cnc6cc(F)ccn56)c5c4C(=O)NC5)nc3)C2)C1 [I-506, (S)-4-(7-fluoroimidazo [1,2-a]pyridin-3-yl)-7-((5-(4-methyl-1-oxa-4,8-diazaspiro[5.5]undecan-8-yl)pyridin-2-yl)amino)isoin-dolin-1-one]"
5,< 100,"C[C@@H](c1nc(Nc2ccc(-c3cnc4cc(F)ccn34)c3c2C(=O)NC3)ccc1[C@H]1CCOC1)N(C)C (single isomer, unassigned) [I-822]"
6,< 100,"CN(C)CCc1nc(Nc2ccc(-c3cnc4cc(F)ccn34)c3c2C(=O)NC3)ccc1N1CCOCC1 [I-840, 7-((6-(2-(dimethylami-no)ethyl)-5-morpholinopyridin-2-yl)amino)-4-(7-fluoroimidazo [1,2-a]pyridin-3-yl)isoindolin-1-one]"
7,100 to 1000,"CN(C)[C@H]1CCCc2ccc(Nc3ccc(-c4cnc5cc(F)ccn45)c4c3C(=O)NC4)nc21 [I-841, (S)-7-((8-(dimethylam-ino)-5,6.7,8-tetrahydroquin-olin-2-yl)amino)-4-(7-fluoroimidazo [1,2-a]pyridin-3-yl)isoindolin-1-one]"
8,< 100,"CN(C)Cc1nc(Nc2ccc(-c3cnc4cc(F)ccn34)c3c2C(=O)NC3)ccc1N1CCC(C)(O)CC1 [I-535, 7-[[6-[(dimethylamino)-methyl]-5-(4-hydroxy-4-methyl-1-piperidyl)-2-pyridyl]amino]-4-(7-fluoroimidazo [1,2-a]pyridin-3-yl)isoindolin-1-one Formic acid salt]"
9,< 100,"CN(C)Cc1nc(Nc2ccc(-c3cnc4cnccn34)c3c2C(=O)NC3)ccc1[C@@H]1CCOC1 [I-714, (S)-7-((6-((dimethylamino)-methyl)-5-(tetrahydrofuran-3-yl)pyridin-2-yl)amino)-4-(imidazo[1,2-a]pyrazin-3-yl)isoindolin-1-one]"
10,< 100,"CN(C[C@@H]1CN(c2ccc(Nc3ccc(-c4cnc5cc(F)ccn45)c4c3C(=O)NC4)nc2)CCO1)C1CC1 [I-494, 7-[[5-[(2R)-2-[[cyclopropyl (methyl)amino]methyl]morph-olin-4-yl]-2-pyridyl]amino]-4-(7-fluoroimidazo [1,2-a]pyridin-yl)isoindolin-1-one]"
11,< 100,"CN(C)C(C)(C)[C@@]1(O)CCCN(c2ccc(Nc3ccc(-c4cnc5cc(F)ccn45)c4c3C(=O)NC4)nc2)C1 [I-716, (R)-7-((5-(3-(2-(dimethylainino)propan-2-yl)-3-hydroxy-piperidin-1-yl)pyridin-2-yl)amino)-4-(7-fluoroimidazo [1,2-a]pyridin-3-yl)isoindolin-1-one]"
12,100 to 1000,"CN1CCN(c2cccc(Nc3ccc(-c4cnc5cnccn45)c4c3C(=O)NC4)n2)CC1 [I-234, 4-imidazo[1,2-a]pyrazin-3-yl-7-[[6-(4-methylpiperazin-1-yl)-2-pyridyl]-amino]isoindolin-1-one]"
13,< 100,"CN(C)Cc1nc(Nc2ccc(-c3cnc4cc(F)ccn34)c3c2C(=O)NC3)ccc1N1CCN(C)C(=O)C1 [I-795, 7-((6-((dimethylamino)-methyl)-5-(4-methyl-3-oxopiperazin-1-yl)pyridin-2-yl)amino)-4-(7-fluoroimidazo [1,2-a]pyridin-3-yl)isoindolin-1-one]"
14,< 100,"CN(C)C1CN(c2nc(Nc3ccc(-c4cnc5cc(F)ccn45)c4c3C(=O)NC4)ccc2C2CCOC2)C1 (stereo in doubt) [I-786, (S)-7-((6-(3-(dimctliylami-no)azetidin-1-yl)-5-(tetrahydrofur-an-3-yl)pyridin-2-yl)amino)-4-(7-fluoroimidazo [1,2-a]pyridin-3-yl)isoindolin-1-one]"
15,< 100,"O=C1NCc2c(-c3cnc4cc(F)ccn34)ccc(Nc3ccc(N4CCCC5(CNCCO5)C4)cn3)c21 (stereo not drawn) [I-500, 4-(7-fluoroimidazo [1,2-a]pyridin-3-yl)-7-[[5-(1-oxa-4,8-diazaspiro[5.5]undecan-8-yl)-2-pyridyl]amino] isoindolin-1-one]"
